Measured values taken from paper PMC5532363, “Synergistic blending of high-valued heterocycles inhibits growth of Plasmodium falciparum in culture and P. berghei infection in mouse model” (Scientific Reports, 2017).
Read-outs that look alike come from different tables or passages of the source.

Columns and labels:
[1] = test system: P. falciparum 3D7 (Pf3D7), CQ sensitive; experiment: SYBR Green I growth inhibition assay, asynchronous P. falciparum 3D7 culture; type: cell-based, Plasmodium falciparum; details: for IC50: Plasmodium falciparum; for IC50 (SE) µM / IC50 (SE) µg/mL: Pf3D7, asynchronous culture
Description: Antimalarial activity of all the listed Pht analogues was initially assessed on asynchronous cultures of P. falciparum 3D7 (Pf3D7) clone using the SYBR Green assay. […] The mean IC50 values are based on three separate experiments (Table 1).
The laboratory-adapted P. falciparum strains 3D7 (Africa; CQ sensitive) and W2 (Africa; CQ resistant), were acquired from Malaria Research and Reference Reagent Resource Center (MR4) (Manassas, VA, USA) and maintained with type O +ve erythrocytes suspended in continuous complete culture medium as described. Complete culture media consisted of 10.43 g/litre of RPMI 1640-HEPES supplemented with 10% (vol/vol) human AB serum, 92.6 mg/litre L-glutamine, 50 mg/liter hypoxanthine, 2 g/litre sodium bicarbonate (Sigma-Aldrich, St. Louis, MO). Incubation of cultures was at 37 °C and maintained in a low oxygen atmosphere (5% O2, 5% CO2, 90% N). The levels of parasitemia in the cultures were maintained at between 2 and 10%, with 5% hematocrit. Media was changed after every 24 hours and parasitemia monitored every 48 hours. Synchronous cultures were prepared by sorbitol lysis. Stock solutions of the Pht, Pht analogues, and DHA were prepared in absolute dimethyl sulfoxide (DMSO) while CQ was prepared in distilled water. The prepared drug stock solutions were used immediately or stored at −80 °C for not longer than one month before use. Stock solutions were further diluted in serum free RPMI 1640 media (stock solution solvent final conc. 0.05%) before performing a 2-fold serial dilution to achieve dose ranges of 0.2 µM to 100 µM (Pht and derivatives), 7.8 to 2,000 nM (CQ) and 0.17 to 87.5 nM (DHA). 25 μL of the drug diluents were aliquoted into 96 well plates and used immediately. Alternatively, the stock solutions were diluted in distilled water, 2-fold serial dilution performed on a 96 well plate and allowed to air dry in a laminar flow hood after which dried plates were stored at 4 °C until use. SYBR Green I assay technique with additional modification was used for drug susceptibility testing of the parasites. Parasite cultures of >1% parasitemia were diluted to 1% parasitemia and 2% hematocrit and 200 μL were transferred onto drug pre-dosed plates and incubated at 37 °C for 90 hours, [40]. Drug exposure was terminated by freezing the drug plates at −80 °C for 24 hours after which lysis buffer containing (per liter) 100 mM Tris-HCl, 10 mM EDTA, 0.016% Saponin, 1.6% triton X-100 and 20X SYBR Green I dye was added and the sample incubated for 2 hours in the dark. Relative fluorescence units (RFU) were read using the Perkin Elmer Wallac 1420 fluorescence plate reader, with excitation and emission wavelengths of 485 nm and 535 nm respectively. The readouts values were aligned with corresponding drug doses and analysis performed by Graph-pad Prism software. The drug concentrations (x value) were transformed using X = Log[X] and plotted against the counts (y values) and the data analysed by non-linear regression (sigmoid dose-response/variable slope equation) to yield the IC50.

P. berghei NK65 = experiment: Modified Peter's 4-day suppressive test in P. berghei NK65 infected Swiss albino mice; type: in vivo, Plasmodium berghei; details: 6h/6u 50 mg/kg, artemisinin 5 mg/kg, s.c. for four consecutive days, n = 6/group
Protocol: The antimalarial effect of two active analogues, 6h and 6u (administered at 50 mg/kg of body weight), was determined in mice infected with P. berghei NK65, a strain, which results in high levels of blood-stage parasitemia. […] However, the 6u analogue had better antimalarial efficacy than the 6h analogue (Fig. 6A). As such, we then evaluated the efficacy of 6u (50 mg/kg) in combination with artemisinin (5 mg/kg of body weight) at reduced dosage in the murine malaria model. […] The median survival times of animals treated with Pht 6u alone, as well in combination with ART were 23 and 27.5 days, respectively (P<0.001).
Figure 6 Antimalarial effect of Pht analogs (6h and 6u) alone and in combination with Artemisinin (6u and ART) on parasitemia and survival in mice infected with P. berghei NK65. Mice were injected with 1 × 10^7 P. berghei infected RBCs. After 48 hours mice were treated with control (PBS: untreated), 6h and 6u (alone), and 6u in combination with artemisinin (all injected subcutaneously) for four consecutive days. The % of parasitemia was determined for the groups on days 5, 8 and 15 by randomly selecting 10 different optical fields on blood smears. (A) Administration of 6h and 6u (alone), and 6 u in combination with ART. Data are the mean ± SEM from six animals per treatment group. (B) Survival in the treatment groups (n = 6/group). (C) Photomicrograph of blood smears of untreated versus treatment groups at day 15 post infection (100x magnification). ART, Artemisinin; *P < 0.05. TEXT PRINTED IN THE PICTURE: (B) Phthalimide 6h: MST- 19.5 | (B) Phthalimide 6u: MST- 23 | (B) Artemisinin: MST- 21.5 | (B) Phthalimide 6u+Artemisinin: MST- 27.5
All animal experiments were performed in female Swiss albino mice (4 to 5 weeks old, weighing 25 to 30 g). The animals were housed under standard controlled conditions at 25 °C with a 12-h light-dark cycle and access to sterilized food pellets and water. All experiments were carried out in accordance with the standard procedures approved by the Animal Ethics Committee of the University of Delhi South Campus, under the Control and Supervision of Experiments on Animals (CPCSEA), Ministry of Social Justice and Empowerment, Government of India. […] The antimalarial activity was carried out in accordance with a slightly modified version of the Peter’s 4-day suppressive test[43]. The animals were assigned to each group (n = 6). Subsequently, after 48 hour of postinfection, the parasitemia level reached 1 to 2%, and all the groups of mice were treated by subcutaneous (s.c.) injection with compounds 6h and 6u alone as well in combination with artemisinin solubilized in DMSO. One group was kept as a control and treated with physiological saline. The efficacy of the treatment was monitored by measuring the parasitemia and survival on days 5, 8 and 15 posttreatments by obtaining thin smears of blood withdrawn from the tail vein of infected mice and staining with 10% Giemsa. The level of parasitemia was determined by counting infected and noninfected erythrocytes from 10 to 15 randomly selected optical fields at 100x magnification and expressed as the number of infected erythrocytes per 100 erythrocytes. The survival of mice was recorded and observed for external symptoms, such as change in body weight, ruffled fur, lethargy and paralysis, until 30 or 40 days posttreatment. The reduction in the level of parasitemia was taken as the index for the curative activities of the drugs. The percentage of parasitemia was calculated manually with the Cell Counting Aid software[44] using the formula (total no. of parasitized RBCs)/(total no. of RBCs) × 100.
For in-vivo experiments, statistical differences between two groups were determined by Student’s t test and between multiple groups using one-way analysis of variance (ANOVA), with P values of <0.05, by GraphPad Prism (version 5.01; GraphPad Software, Inc., CA). […]

[2] = 3D7, Pf3D7, asynchronous culture, SYBR Green, mean of three experiments, NDR / No IC50 = no dose response, read-out: IC50 (SE) µM
[3] = 3D7, Pf3D7, asynchronous culture, SYBR Green, mean of three experiments, NDR / No IC50 = no dose response, read-out: IC50 (SE) µg/mL
[4] = SYBR Green, mean of three experiments, NDR / No IC50 = no dose response

SMILES	IC50 [1, 2] [µM]	IC50 [1, 3] [µg/mL]	melting point [°C]	IC50 (SE) µM [1, 4]	IC50 (SE) µg/mL [1, 4]	further results
CCOC(=O)Cn1cc(Cn2c([C@@H](CC(C)C)N3C(=O)c4ccccc4C3=O)nc3ccccc32)nn1 [Compound 6p]	62	31	147 to 149	–	–	–
CC[C@@H](C)[C@H](c1nc2ccccc2n1Cc1c[nH]nn1)N1C(=O)c2ccccc2C1=O [Compound 6z]	–	–	–	No IC50	No IC50	–
CC(C)[C@H](c1nc2ccccc2n1Cc1cn(-c2ccccc2)nn1)N1C(=O)c2ccccc2C1=O [Compound 6k]	30.9	16	221 to 223	–	–	–
CCOC(=O)Cn1cc(Cn2c([C@@H]([C@H](C)CC)N3C(=O)c4ccccc4C3=O)nc3ccccc32)nn1 [Compound 6v]	–	–	–	No IC50	No IC50	–
CC[C@@H](C)[C@H](c1nc2ccccc2n1Cc1cn(-c2ccc(C)cc2)nn1)N1C(=O)c2ccccc2C1=O [Compound 6j]	73	33.4	198 to 201	–	–	–
CC[C@@H](C)[C@H](c1nc2ccccc2n1Cc1cn(-c2ccc(OC)cc2)nn1)N1C(=O)c2ccccc2C1=O [Compound 6i]	40	22.5	135 to 137	–	–	–
Cc1ccc(-n2cc(Cn3c([C@@H](C(C)C)N4C(=O)c5ccccc5C4=O)nc4ccccc43)nn2)cc1 [Compound 6o]	23.5	17.5	169 to 171	–	–	–
O=C1NC(=O)c2ccccc21 [I, Phthalimide, reference compound]	5.14	0.8	–	–	–	–
CC(C)[C@H](c1nc2ccccc2n1Cc1cn(-c2ccc(Cl)cc2)nn1)N1C(=O)c2ccccc2C1=O [Compound 6l]	–	–	182 to 184	NDR	NDR	–
CCOC(=O)Cn1cc(Cn2c([C@@H](C(C)C)N3C(=O)c4ccccc4C3=O)nc3ccccc32)nn1 [6a′]	–	–	–	No IC50	No IC50	–
CC(C)[C@H](c1nc2ccccc2n1Cc1cn(CC(=O)O)nn1)N1C(=O)c2ccccc2C1=O [6b′]	7.2	3.8	–	–	–	–
CCCCCCn1cc(Cn2c([C@@H](CC(C)C)N3C(=O)c4ccccc4C3=O)nc3ccccc32)nn1 [Compound 6t]	28	14	146 to 148	–	–	–
CC[C@@H](C)[C@H](c1nc2ccccc2n1Cc1cn(-c2ccc(Cl)cc2)nn1)N1C(=O)c2ccccc2C1=O [Compound 6g]	–	–	194 to 196	NDR	NDR	–
COc1ccc(-n2cc(Cn3c([C@@H](C(C)C)N4C(=O)c5ccccc5C4=O)nc4ccccc43)nn2)cc1 [Compound 6n]	9.6	5.5	125 to 127	–	–	–
CC(C)[C@H](c1nc2ccccc2n1Cc1cn(C2O[C@@H](CO)C(O)[C@@H](O)[C@@H]2O)nn1)N1C(=O)c2ccccc2C1=O (stereo partly shown) [6d′]	48.3	20	–	–	–	–
CCCCCCn1cc(Cn2c([C@@H](C(C)C)N3C(=O)c4ccccc4C3=O)nc3ccccc32)nn1 [6e′]	16.7	6.9	–	–	–	–
CC(C)C[C@H](c1nc2ccccc2n1Cc1cn(-c2ccc(Cl)cc2)nn1)N1C(=O)c2ccccc2C1=O [Compound 6b]	–	–	–	NDR	NDR	–
CC(C)C[C@H](c1nc2ccccc2n1Cc1cn(-c2ccc(F)cc2)nn1)N1C(=O)c2ccccc2C1=O [Compound 6c]	17.3	8.8	–	–	–	–
C[C@H]1[C@@H](O)O[C@@H]2O[C@@]3(C)CC[C@H]4[C@H](C)CC[C@@H]1[C@@]24OO3 [DHA, dihydroartemisinin, reference compound]	0.003	0.0017	–	–	–	–
COc1ccc(-n2cc(Cn3c([C@@H](CC(C)C)N4C(=O)c5ccccc5C4=O)nc4ccccc43)nn2)cc1 [Compound 6d]	–	–	–	NDR	NDR	–
CC[C@@H](C)[C@H](c1nc2ccccc2n1Cc1cn(-c2ccccc2)nn1)N1C(=O)c2ccccc2C1=O [Compound 6f]	–	–	211 to 213	NDR	NDR	–
C[C@@H]1CC[C@H]2[C@@H](C)C(=O)O[C@@H]3O[C@@]4(C)CC[C@@H]1[C@]32OO4 [Artemisinin, reference compound]	–	–	–	–	–	median survival time (MST) (P. berghei NK65): 21.5 days
CCN(CC)CCCC(C)Nc1ccnc2cc(Cl)ccc12 (stereo not shown) [CQ, chloroquine, reference compound]	–	–	–	–	–	IC50 ([1]; 3D7, read-out: IC50 (SE) µM): 0.03 µM; IC50 ([1]; 3D7, read-out: IC50 (SE) µg/mL): 0.015 µg/mL
Cc1ccc(-n2cc(Cn3c([C@@H](CC(C)C)N4C(=O)c5ccccc5C4=O)nc4ccccc43)nn2)cc1 [Compound 6e]	25	13	–	–	–	–
CC[C@@H](C)[C@H](c1nc2ccccc2n1Cc1cn(CC(=O)O)nn1)N1C(=O)c2ccccc2C1=O [Compound 6w]	15.6	11.6	–	–	–	–
CC(C)C[C@H](c1nc2ccccc2n1Cc1cn(CC(=O)O)nn1)N1C(=O)c2ccccc2C1=O [Compound 6q]	8.4	4.1	–	–	–	–
